Source: the kinase profiling compilation of Christmann-Franck et al. (2016)

Key:
Assay in all cases: HTRF
FRK (human) = FRK (human) (UniProt P42685)
ERBB4 (human) = ERBB4 (human) (UniProt Q15303)
SRC (human) = SRC (human) (UniProt P12931)
FER (human) = FER (human) (UniProt P16591)
EPHA2 (human) = EPHA2 (human) (UniProt P29317)
KDR (human) = KDR (human) (UniProt P35968)
IGF1R (human) = IGF1R (human) (UniProt P08069)
FGFR3 (human) = FGFR3 (human) (UniProt P22607)
LYN (human) = LYN (human) (UniProt P07948)
NTRK1 (human) = NTRK1 (human) (UniProt P04629)
FGFR1 (human) = FGFR1 (human) (UniProt P11362)
Chain of FGFR1 (human) (P11362 whole entry, looked up): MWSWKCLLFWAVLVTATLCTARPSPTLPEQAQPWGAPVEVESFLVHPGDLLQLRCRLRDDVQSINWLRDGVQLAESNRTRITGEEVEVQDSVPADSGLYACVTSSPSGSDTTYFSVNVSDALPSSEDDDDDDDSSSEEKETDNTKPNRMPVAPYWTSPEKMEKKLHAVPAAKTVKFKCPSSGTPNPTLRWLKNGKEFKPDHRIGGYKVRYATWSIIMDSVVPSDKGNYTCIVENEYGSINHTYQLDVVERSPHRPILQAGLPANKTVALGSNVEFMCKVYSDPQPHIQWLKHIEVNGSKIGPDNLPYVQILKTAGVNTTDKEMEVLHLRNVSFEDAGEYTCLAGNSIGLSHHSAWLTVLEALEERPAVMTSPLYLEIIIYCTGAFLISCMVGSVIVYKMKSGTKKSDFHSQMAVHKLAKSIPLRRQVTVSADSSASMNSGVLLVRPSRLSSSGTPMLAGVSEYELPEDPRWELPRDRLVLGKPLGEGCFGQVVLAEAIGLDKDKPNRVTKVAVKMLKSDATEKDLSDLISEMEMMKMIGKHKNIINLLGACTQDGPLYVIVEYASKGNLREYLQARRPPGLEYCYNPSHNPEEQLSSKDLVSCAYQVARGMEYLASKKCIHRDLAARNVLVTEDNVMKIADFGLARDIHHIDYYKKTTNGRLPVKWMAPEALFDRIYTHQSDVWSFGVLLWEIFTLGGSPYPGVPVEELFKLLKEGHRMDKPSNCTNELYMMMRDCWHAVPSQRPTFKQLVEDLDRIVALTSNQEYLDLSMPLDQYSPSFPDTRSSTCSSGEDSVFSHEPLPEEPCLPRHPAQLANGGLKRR

ABL1 (human) = ABL1 (human) (UniProt P00519)
RET (human) = RET (human) (UniProt P07949)
Chain of RET (human) (P07949 whole entry, looked up): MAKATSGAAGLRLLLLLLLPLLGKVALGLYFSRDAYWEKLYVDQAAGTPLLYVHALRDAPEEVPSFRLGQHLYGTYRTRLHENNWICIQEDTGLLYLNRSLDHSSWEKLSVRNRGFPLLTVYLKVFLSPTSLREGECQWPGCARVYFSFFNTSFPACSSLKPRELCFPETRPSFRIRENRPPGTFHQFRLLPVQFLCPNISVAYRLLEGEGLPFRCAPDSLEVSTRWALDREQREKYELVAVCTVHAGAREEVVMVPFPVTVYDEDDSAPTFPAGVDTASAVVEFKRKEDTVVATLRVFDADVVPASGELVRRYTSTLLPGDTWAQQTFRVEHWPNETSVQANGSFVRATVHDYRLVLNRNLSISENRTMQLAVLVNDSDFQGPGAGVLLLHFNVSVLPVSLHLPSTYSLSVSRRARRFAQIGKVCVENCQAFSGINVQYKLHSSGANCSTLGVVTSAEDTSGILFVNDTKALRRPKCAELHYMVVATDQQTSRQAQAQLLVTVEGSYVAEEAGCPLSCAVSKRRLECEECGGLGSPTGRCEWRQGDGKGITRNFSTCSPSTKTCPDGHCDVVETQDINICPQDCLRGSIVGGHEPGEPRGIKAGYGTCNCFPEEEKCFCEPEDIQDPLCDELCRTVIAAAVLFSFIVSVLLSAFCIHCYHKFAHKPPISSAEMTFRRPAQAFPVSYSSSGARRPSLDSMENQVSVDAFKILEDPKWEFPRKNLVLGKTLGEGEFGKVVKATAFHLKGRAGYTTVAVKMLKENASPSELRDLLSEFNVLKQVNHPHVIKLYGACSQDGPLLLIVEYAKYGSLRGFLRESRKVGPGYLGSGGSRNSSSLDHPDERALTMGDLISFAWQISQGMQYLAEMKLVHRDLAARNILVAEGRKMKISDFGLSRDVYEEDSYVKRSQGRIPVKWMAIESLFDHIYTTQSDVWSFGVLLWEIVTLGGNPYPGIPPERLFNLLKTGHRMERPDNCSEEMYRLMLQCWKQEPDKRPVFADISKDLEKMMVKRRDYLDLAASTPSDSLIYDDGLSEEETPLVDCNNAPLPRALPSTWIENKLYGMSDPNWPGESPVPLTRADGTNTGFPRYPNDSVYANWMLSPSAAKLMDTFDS

SRMS (human) = SRMS (human) (UniProt Q9H3Y6)
INSR (human) = INSR (human) (UniProt P06213)
KIT (human) = KIT (human) (UniProt P10721)
MATK (human) = MATK (human) (UniProt P42679)
LCK (human) = LCK (human) (UniProt P06239)
BTK (human) = BTK (human) (UniProt Q06187)
FLT3 (human) = FLT3 (human) (UniProt P36888)
BLK (human) = BLK (human) (UniProt P51451)
TYK2 JH1 JH2 (human) = TYK2 JH1 JH2 (human) (UniProt P29597)
FLT1 (human) = FLT1 (human) (UniProt P17948)
FYN (human) = FYN (human) (UniProt P06241)
CSF1R (human) = CSF1R (human) (UniProt P07333)

Chain of ERBB4 (human) (Q15303 whole entry, looked up): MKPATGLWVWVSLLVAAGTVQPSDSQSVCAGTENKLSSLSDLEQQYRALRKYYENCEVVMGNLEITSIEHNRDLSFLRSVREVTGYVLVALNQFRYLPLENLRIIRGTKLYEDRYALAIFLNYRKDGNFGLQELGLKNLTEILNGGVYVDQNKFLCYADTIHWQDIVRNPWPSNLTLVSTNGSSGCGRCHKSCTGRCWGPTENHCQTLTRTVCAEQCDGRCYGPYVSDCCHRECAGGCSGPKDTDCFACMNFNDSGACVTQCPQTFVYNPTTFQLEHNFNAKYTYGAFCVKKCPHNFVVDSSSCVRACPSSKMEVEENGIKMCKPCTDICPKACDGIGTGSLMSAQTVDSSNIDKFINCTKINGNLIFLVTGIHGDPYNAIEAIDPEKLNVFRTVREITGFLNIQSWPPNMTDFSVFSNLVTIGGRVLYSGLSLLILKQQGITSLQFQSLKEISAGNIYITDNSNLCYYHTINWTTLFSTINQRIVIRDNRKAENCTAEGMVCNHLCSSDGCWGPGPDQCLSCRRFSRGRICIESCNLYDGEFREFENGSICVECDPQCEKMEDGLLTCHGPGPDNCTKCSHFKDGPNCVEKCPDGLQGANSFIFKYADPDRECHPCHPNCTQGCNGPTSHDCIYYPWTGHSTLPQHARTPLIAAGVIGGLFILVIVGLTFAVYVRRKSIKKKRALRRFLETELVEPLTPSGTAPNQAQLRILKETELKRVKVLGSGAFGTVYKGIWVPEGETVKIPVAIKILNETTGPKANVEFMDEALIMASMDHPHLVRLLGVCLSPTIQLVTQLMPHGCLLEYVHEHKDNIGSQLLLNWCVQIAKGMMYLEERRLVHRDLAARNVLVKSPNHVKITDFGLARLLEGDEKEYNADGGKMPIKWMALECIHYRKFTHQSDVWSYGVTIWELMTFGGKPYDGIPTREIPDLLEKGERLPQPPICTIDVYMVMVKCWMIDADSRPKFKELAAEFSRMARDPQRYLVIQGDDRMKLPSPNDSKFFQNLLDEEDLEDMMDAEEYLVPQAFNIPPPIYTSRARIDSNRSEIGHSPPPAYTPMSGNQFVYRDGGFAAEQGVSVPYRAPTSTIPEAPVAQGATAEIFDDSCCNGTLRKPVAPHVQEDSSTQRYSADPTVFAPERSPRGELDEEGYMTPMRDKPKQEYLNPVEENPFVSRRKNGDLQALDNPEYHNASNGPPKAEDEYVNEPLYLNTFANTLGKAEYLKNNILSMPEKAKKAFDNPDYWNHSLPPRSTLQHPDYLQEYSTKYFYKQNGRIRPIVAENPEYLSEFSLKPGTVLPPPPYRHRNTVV
Chain of EPHA2 (human) (P29317 whole entry, looked up): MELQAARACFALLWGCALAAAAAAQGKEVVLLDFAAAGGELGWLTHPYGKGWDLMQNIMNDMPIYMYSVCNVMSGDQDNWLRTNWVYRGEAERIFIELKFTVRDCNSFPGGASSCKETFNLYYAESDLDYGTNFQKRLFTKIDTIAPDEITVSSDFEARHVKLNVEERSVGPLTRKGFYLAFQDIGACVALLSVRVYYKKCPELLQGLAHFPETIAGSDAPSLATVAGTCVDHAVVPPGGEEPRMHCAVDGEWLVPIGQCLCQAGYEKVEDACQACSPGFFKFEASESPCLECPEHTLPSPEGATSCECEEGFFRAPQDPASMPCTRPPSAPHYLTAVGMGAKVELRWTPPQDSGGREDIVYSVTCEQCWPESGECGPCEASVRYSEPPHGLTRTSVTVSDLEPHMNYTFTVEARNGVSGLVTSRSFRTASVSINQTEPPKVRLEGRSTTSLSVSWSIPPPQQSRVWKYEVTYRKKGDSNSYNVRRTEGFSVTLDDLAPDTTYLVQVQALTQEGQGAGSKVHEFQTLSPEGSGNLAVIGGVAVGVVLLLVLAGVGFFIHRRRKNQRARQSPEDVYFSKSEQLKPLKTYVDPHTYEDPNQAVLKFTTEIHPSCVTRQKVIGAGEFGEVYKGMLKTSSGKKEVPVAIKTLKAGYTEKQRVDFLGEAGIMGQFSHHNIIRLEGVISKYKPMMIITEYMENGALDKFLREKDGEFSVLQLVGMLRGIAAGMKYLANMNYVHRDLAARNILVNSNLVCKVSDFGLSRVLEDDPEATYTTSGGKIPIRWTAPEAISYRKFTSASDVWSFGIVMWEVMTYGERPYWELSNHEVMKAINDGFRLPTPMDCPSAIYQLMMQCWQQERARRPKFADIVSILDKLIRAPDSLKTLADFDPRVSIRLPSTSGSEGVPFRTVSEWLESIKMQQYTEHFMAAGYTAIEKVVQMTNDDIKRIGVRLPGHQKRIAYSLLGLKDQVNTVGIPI
Chain of FRK (human) (P42685 whole entry, looked up): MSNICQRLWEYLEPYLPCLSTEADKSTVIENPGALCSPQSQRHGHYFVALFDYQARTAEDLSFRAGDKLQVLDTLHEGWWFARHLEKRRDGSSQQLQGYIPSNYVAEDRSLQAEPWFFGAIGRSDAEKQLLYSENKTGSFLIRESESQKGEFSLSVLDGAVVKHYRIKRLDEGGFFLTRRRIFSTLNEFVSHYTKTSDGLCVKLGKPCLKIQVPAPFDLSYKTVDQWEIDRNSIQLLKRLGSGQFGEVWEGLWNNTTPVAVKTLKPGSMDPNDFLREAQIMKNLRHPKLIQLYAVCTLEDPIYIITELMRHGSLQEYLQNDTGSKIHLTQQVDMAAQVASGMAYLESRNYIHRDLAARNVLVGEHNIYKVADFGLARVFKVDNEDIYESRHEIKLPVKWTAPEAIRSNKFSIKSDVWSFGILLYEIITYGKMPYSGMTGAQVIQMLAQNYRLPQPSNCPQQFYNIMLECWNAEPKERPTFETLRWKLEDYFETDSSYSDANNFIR

- Ki (FRK (human)): 63.1 nM
- Ki (ERBB4 (human)): 3980 nM
- Ki (SRC (human)): > 2000 nM
- Ki (FER (human)): 50.1 nM
- Ki (EPHA2 (human)): > 3160 nM
- Ki (KDR (human)): 631 nM
- Ki (IGF1R (human)): > 2000 nM
- Ki (FGFR3 (human)): 158 nM
- Ki (LYN (human)): 1000 nM
- Ki (NTRK1 (human)): 1260 nM
- Ki (FGFR1 (human)): 251 nM
- Ki (ABL1 (human)): > 631 nM
- Ki (RET (human)): 63.1 nM
- Ki (SRMS (human)): > 1580 nM
- Ki (INSR (human)): 501 nM
- Ki (KIT (human)): 1260 nM
- Ki (MATK (human)): 501 nM
- Ki (LCK (human)): 2000 nM
- Ki (BTK (human)): > 1260 nM
- Ki (FLT3 (human)): 50.1 nM
- Ki (BLK (human)): 200 nM
- Ki (TYK2 JH1 JH2 (human)): 1260 nM
- Ki (FLT1 (human)): 200 nM
- Ki (FYN (human)): > 794 nM
- Ki (CSF1R (human)): 126 nM
Structure (SMILES): O=C1c2ccccc2-c2n[nH]c3cccc1c23
